In article PMC12598698, “Synergistic Cancer Metabolic Therapy via Co-Delivery of 3‑Bromopyruvate and Temozolomide with a Supramolecular Shuttle” (ACS Applied Materials & Interfaces, 2025):
Values joined by “and” are separate entries in the source; they are usually repeats but may differ in a detail not shown here. Equal entries are not always repeated.

Legend:
U-87 MG cells (2D) [1] = test: 2D U-87 cell viability assay (PrestoBlue); format: cell-based, human
Procedure: Cells were seeded in 48-well plates at approximately 3 × 10^4 cells per well in DMEM culture medium supplemented with 10% FBS. U-87 MG cell lines from human brain were initially cultured in 25 cm^2 flasks, using DMEM supplemented with FBS 10%, P/S 2%, and L/GLUT 2 mM, in a humidified incubator (37 °C/5% CO2). After 24 h, once cells adhered, they were treated in parallel with NF-BrP (BrP, 5 μM), NF-BrP-TMZ (BrP and TMZ, 5 μM), and BrP at concentrations of 30, 50, 100, and 150 μM, for 24, 48, and 72 h. Untreated cells served as the controls. All experiments were performed under standard cell culture conditions (95% relative humidity, 5% CO2, 37 °C). At the end of each incubation time, cell viability was assessed using the PrestoBlue assay (ThermoFisher Scientific), according to the manufacturer’s protocol. Cells were incubated with the reagent for 1 h, and absorbance was obtained at 570 nm with 600 nm as the reference wavelength with a BioTek Synergy HT microplate reader. Results are expressed as the percentage of viable cells relative to the untreated controls.

[2] = tested on: mitochondria isolated from rat brain; test: EPR analysis of ROS production upon mitochondria respiration (Mito-TEMPO); format: biochemical; conditions: succinate without rotenone, 37 °C, 8 min preincubation
Procedure: Investigation of the redox status in mitochondria was performed using the Mito-TEMPO paramagnetic spin probe, which is a mitochondria-penetrating nitroxide radical that allows evaluation of the level of ROS (mainly superoxides) produced during respiration. The same protocol as described in the previous subsection was followed with the addition of Mito-TEMPO (0.1 mM) during the preincubation with BrP, NF, or NF-Br. In this case succinate was used as a respiratory substrate in the absence of rotenone in order to allow the formation of ROS via the electron reverse from complex II to complex I. At predetermined time intervals, 20 μL of each sample was loaded into glass capillaries and flame-sealed. To guarantee thermal stability, the sealed capillaries were subsequently placed inside a standard 4 mm quartz EPR-sample tube that had been lightly lubricated with silicone oil. As described in a previous subsection, a 9 GHz Bruker Elexsys E500 spectrometer was used to record the EPR spectra. During acquisition, the sample temperature was maintained at 37 °C by directing thermostated nitrogen gas through a quartz dewar. Mito-TEMPO EPR signals were analyzed by double integration using the Bruker software package.

[3] = tested on: mitochondria isolated from rat brain; test: Mitochondrial respiration (Clark-type electrode); format: biochemical; conditions: 5 μM, 8 min preincubation, 37 °C, ADP 300 μM
Procedure: Male Wistar rats (275–300 g) were obtained from Envigo RMS Srl (Udine, Italy). Animals were housed in a temperature-controlled environment (22 °C) under a 12:12 h light–dark cycle, with food and water available ad libitum. All procedures were conducted in strict accordance with European guidelines for the care and use of laboratory animals. Every attempt was made to reduce the suffering and discomfort experienced by the animals. Experimental protocols were approved by the Committee on the Ethics of Animal Experiments of the University of Naples Federico II (Italy) and the Italian Minister of Health (protocol number 776/2021-Pr). Rats were anesthetized by ip injection of tiopental (40 mg/100 body weight) and euthanized by decapitation. Brains were immediately excised, weighed, and processed for mitochondrial isolation, following the method described by Sumbalova et al. Briefly, brain tissues were immersed in ice-cold isolation buffer (330 mM sucrose, 10 mM Tris-HCl, 1 mM EDTA, and 2.5 g/L fatty acid-free BSA, pH 7.4) and homogenized using a Potter-Elvehjem homogenizer. […] Mitochondrial respiration rate was measured polarographically using a Clark-type electrode (Clark-type electrode, Oxygraph system, Hansatech Instruments Ltd., UK). […]

U-87 MG cells (2D) [4] = conditions: highest tested concentration 250 μM, 72 h; ref previous work; cited from earlier work
Procedure: Combining drugs with different mechanisms of action targeting distinct cellular pathways can help overcome resistance and produce a synergistic effect, thereby enhancing the overall anticancer efficacy. The combined cytotoxic effect of the nanofiber NF-TMZ-BrP, cofunctionalized with BrP and TMZ (both at 5 μM), was evaluated in 2D and 3D-U87 cells at 24, 48, and 72 h. […] After 72 h, the cytotoxic effect became more pronounced, with appro ...

SMILES | reduction of U-87 cell viability by free BrP at 150 μM (U-87 MG cells (2D) [1]; free drug 150 μM, prolonged exposure) | concentrations at which a decrease in U-87 cell viability is observed (U-87 MG cells (2D) [1]; free drug, 24, 48 and 72 h) | effect on mitochondrial ROS production (slope of mito-TEMPO decay) [2] | inhibition of ADP-stimulated respiration, pyruvate + malate [3] | inhibition of ADP-stimulated respiration, succinate + rotenone [3] | reduction in cell viability by free TMZ (U-87 MG cells (2D) [4])
O=C(O)C(=O)CBr [BrP, 3-bromopyruvic acid] | no more than 20% | 50 to 150 µM and > 50 µM | reduces the slope in a dose-dependent manner | about 50% | about 50% | –
Cn1nnc2c(C(N)=O)ncn2c1=O [TMZ, temozolomide] | – | – | – | – | – | 40%
